What was measured:
Assay in all cases: X-ray crystallography
Assay type in all cases: binding
iLOV = target: T1, iLOV (Arabidopsis thaliana, UniProt P93025, S394T/S409G/C426A/I452T/F470L/M475V/Q489K); conditions: 1.45 Å; space group P4_32_12; pH 4.6; noncovalent; acetate ion near FMN-N5
T1 construct: gene PHOT2; improved LOV2 domain (about residues 387-496 of phot2), expressed in E. coli from pET28a, His-tag (IMAC), monomer about 10 kDa

CagFbFP [1] = target: T2, CagFbFP (Chloroflexus aggregans, UniProt B8GAY9, I52T/C85A); conditions: pH 5.5; noncovalent; structure virtually identical to parental CagFbFP
T2 construct: gene Cagg_3753; LOV domain from residue 47 (about 47-153), C-terminal His-tag, expressed in E. coli from pET11, homodimer
T2 sequence (B8GAY9 entry or part of it I52T/C85A): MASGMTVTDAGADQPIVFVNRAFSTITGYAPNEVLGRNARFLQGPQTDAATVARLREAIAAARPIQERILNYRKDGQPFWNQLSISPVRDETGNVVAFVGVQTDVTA

CagFbFP [2] = target: T3, CagFbFP (Chloroflexus aggregans, UniProt B8GAY9, C85A/Q148K); conditions: 1.36 Å; pH 6.5; noncovalent; morpholine fragment near FMN; second structure 6YX6
T3 construct: gene Cagg_3753; LOV domain from residue 47 (about 47-153), C-terminal His-tag, expressed in E. coli from pET11, homodimer
T3 sequence (B8GAY9 entry or part of it C85A/Q148K): as the sequence (B8GAY9 entry or part of it I52T/C85A) above, with T6I, Q102K counted along it

CagFbFP [3] = target: T4, CagFbFP (Chloroflexus aggregans, UniProt B8GAY9, I52T/C85A/Q148K); conditions: 1.8 Å; space group P2_12_12; pH 5.0; noncovalent
T4 construct: gene Cagg_3753; LOV domain from residue 47 (about 47-153), C-terminal His-tag, expressed in E. coli from pET11, homodimer
T4 sequence (B8GAY9 entry or part of it I52T/C85A/Q148K): as the sequence (B8GAY9 entry or part of it I52T/C85A) above, with Q102K counted along it

T1 sequence (P93025 387-496 S394T/S409G/C426A/I452T/F470L/M475V/Q489K limits assumed): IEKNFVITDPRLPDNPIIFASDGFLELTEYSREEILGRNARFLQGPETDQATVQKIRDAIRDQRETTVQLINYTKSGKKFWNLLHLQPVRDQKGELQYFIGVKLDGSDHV

X-ray crystallography (iLOV): hydrogen bond network to FMN and N468
X-ray crystallography (CagFbFP [1]): X-ray structure of CagFbFP-I52T
SMILES: Cc1cc2nc3c(=O)[nH]c(=O)nc-3n(C[C@H](O)[C@H](O)[C@H](O)COP(=O)(O)O)c2cc1C [FMN]
X-ray crystallography (CagFbFP [2]): side chain of the introduced lysine is facing away from FMN
X-ray crystallography (CagFbFP [3]): structure of CagFbFP–I52T–Q148K with hydrogen bonds between K148, T52, and the FMN
